The values below are quoted from earlier work in patent publication US20040229771A1, “Method of reducing decline of or preserving residual renal function” (priority 2003, published 2004).

This data set has as its system cell culture. To be noted: cell culture experiments, reference (2).

As to `O=CC(=O)C=CC(O)CO` (stereo not shown) [3,4-DGE, 3,4-dideoxyglucosone-3-ene], the immunosuppressive effects entry was “immunosuppressive effects”.
